Reference: patent US20200033346A1, “DIAGNOSTIC AND THERAPEUTIC METHODS FOR KRAS POSITIVE CANCERS” (The Board of Trustees of the Leland Stanford Junior …, priority 2017, published 2020)

How the values were obtained:
A549 = assay: Cell proliferation upon FASN inhibition (PI assay, hemocytometer cell counting), A549; format: cell-based, human; settings: cerulenin 1-10 μg/mL, FIG. 6A
Text: (§1) Cell culture. The human non-small cell lung carcinoma cell lines, A549 and H1299, were used for in vitro experiments. A549 cells were maintained in Dulbecco's Modified Eagle Medium (DMEM) supplemented with 10% fetal bovine serum (FBS), 1% L-glutamine, 1% sodium pyruvate, 1% nonessential amino acids, and Antibiotic-Antimycotic. […] Trypsin-EDTA was used to passage both A549 and H1299 cells. All cell culture reagents were purchased from Gibco® (Thermo Fisher Scientific Inc.).
(§2) Small molecule inhibitors. […] FTS is a synthetic famesylcysteine mimetic which interferes with the anchoring of KRAS to the plasma membrane. […] Various levels of these drugs were administered to cells in culture over a time course in order to assess dose-response relationships.
(§3) Cell counting. A volume of cells was removed from culture medium and mixed with an equal volume of 0.4% Trypan blue stain. Then 10 μL was taken out and placed into a hemocytometer for cell counting. Viable cell counts were used as a measure of cell proliferation.

H1299 = assay: Cell proliferation upon FASN inhibition (PI assay, hemocytometer cell counting), H1299; format: cell-based, human; settings: cerulenin 1-10 μg/mL, FIG. 6B
Text: as §1, §2, §3

FASN = FASN (Homo sapiens, UniProt P49327); settings: background description; cited from earlier work
[1] = test system: FASN and SCD gene expression; assay: Real-time PCR of FASN and SCD mRNA in human lung cancer cell lines after inhibitor treatment; format: cell-based; settings: qPCR
Protocol: Cell culture. The human non-small cell lung carcinoma cell lines, A549 and H1299, were used for in vitro experiments. A549 cells were maintained in Dulbecco's Modified Eagle Medium (DMEM) supplemented with 10% fetal bovine serum (FBS), 1% L-glutamine, 1% sodium pyruvate, 1% nonessential amino acids, and Antibiotic-Antimycotic. H1299 cells were maintained in RPMI 1640 medium supplemented with 10% FBS, 50 μM β-mercaptoethanol, and Antibiotic-Antimycotic. Trypsin-EDTA was used to passage both A549 and H1299 cells. All cell culture reagents were purchased from Gibco® (Thermo Fisher Scientific Inc.). Small molecule inhibitors. […] FTS is a synthetic famesylcysteine mimetic which interferes with the anchoring of KRAS to the plasma membrane. […] Various levels of these drugs were administered to cells in culture over a time course in order to assess dose-response relationships. RNA extraction and cDNA synthesis. Total RNA was isolated from cells and lung tissue using the QIAGEN RNeasy Mini kit. RNA quality and concentration were assessed by the NanoDrop® spectrophotometer. The RNA was reverse transcribed into cDNA using the SuperScript® III First-Strand Synthesis System (Invitrogen). […] Amplicons were detected by using SYBR® Green I dye as fluorophore. […] For each gene, a threshold cycle (Ct) number, which represents the number of cycles required to reach the threshold fluorescence, was determined. […]

ERK1/2 phosphorylation = assay: NIA analysis of ERK isoforms in FNAs from transgenic lymphoma; format: in vivo, mouse; settings: Day 4 of FTS treatment, FIG. 22
Protocol: (§4) Nanoimmunoassay (NIA). NIA was performed using the Nanopro 1000 (Protein Simple) to detect the phosphorylation states of ERK1 and ERK2 in lysates generated from lung tumor tissue. NIA is a highly sensitive capillary-based isoelectric focusing method that uses antibody detection to quantify protein isoforms as well as characterize post-translational protein modifications such as phosphorylation. The final protein concentration loaded into each capillary of the Nanopro 1000 was 0.1 μg/μL. The primary rabbit antibody for ERK1/2 (Millipore) was diluted 1:300 and the primary mouse antibody for the loading control, Hsp70 (Santa Cruz Biosciences), was diluted 1:500. The anti-mouse and anti-rabbit secondary antibodies, conjugated to horse radish peroxidase, were diluted 1:100. Chemiluminescence signal was recorded following the addition of luminol and peroxide detection reagents. Analysis of NIA data was performed in Compass software (Protein Simple).
Tumors were sampled by fine needle aspirate prior to treatment (UnTx), and […] after 1-8 days of treatment with FTS.
Comparison with dox is shown. Mice were either treated with FTS (BC2FTS) or BCL2 inactivation (BCL2Dox). Tumors were sampled by fine needle aspirate prior to treatment (UnTx), and […] after 1-8 days of treatment with FTS.

BCL2-induced lymphoma = assay: Tumor growth in mice with BCL2-induced lymphoma; format: in vivo, mouse; settings: RAS inactivation by FTS together with BCL2 inactivation by DOX; FIG. 21
Text: Inactivation of both BCL2 and Ras inhibits tumor growth more effectively than either oncogene alone: mice with BCL2-induced lymphoma. Plots of tumor area over time in mice cohorts: untreated (UnTx), with BCL2 inactivated (BCL2 off), Ras inactivated (Ras off, or both BCL2 and Ras inactivated (BCL2off,Ras off).

ERK1/2 phospho-isoforms = assay: NIA analysis of ERK isoforms in tumor FNAs of mice with MYC-induced lymphoma; format: in vivo, mouse; settings: FIG. 18
Protocol: as §4
Mice with MYC-induced lymphoma were treated with FTS. Tumors from mouse untreated or after 4 days of treatment were sampled by fine needle aspirate. FNAs were flash frozen and batch analyzed. NIA was used to analyze ERK isoforms using NIA.

Erk pathway = assay: NIA of ERK isoforms in head and neck squamous cell carcinoma before and after rigosertib; format: in vivo, human; settings: one head and neck cancer patient; pre- vs post-treatment; FIG. 32
Protocol: Patients receive 2 cycles of 2 weeks of treatment with 1 week off regimen. For Cycle 1, Day 14 only, 5 patients with HNSCC will undergo biopsy or FNA for nano-proteomic profiling of total- and phospho-proteins in pathways inhibited by rigosertib, ERK and loading control. For Cycle 1 Day 14 and Cycle 2 Day 14, pharmacokinetic blood analyses are performed. […] A patient with head and neck cancer treated on clinical trial of rigosertib had tumor sampled before (pre-treatment) and after (post-treatment) treatment. NIA was used to measure ERK isforms.

tumor burden = assay: Tumor burden in patients on clinical trial of atorvastatin; format: in vivo, human; settings: eight days of treatment
MEK1 phospho-isoforms = assay: NIA of MEK isoforms in NHL patients before and after atorvastatin; format: in vivo, human
Protocol: Nine patients were treated on clinical trial of HMG co-A reductase inhibitor atorvastatin. NIA was used to measure changes in MEK isoforms before (day 1) and after eight days of treatment.
Nine patients were treated on clinical trial of HMG co-A reductase inhibitor atorvastatin. NIA was used to measure changes in MEK isoforms before (day 1) and after 8 days of treatment.

Sequence of FASN (P49327 whole entry, species assumed): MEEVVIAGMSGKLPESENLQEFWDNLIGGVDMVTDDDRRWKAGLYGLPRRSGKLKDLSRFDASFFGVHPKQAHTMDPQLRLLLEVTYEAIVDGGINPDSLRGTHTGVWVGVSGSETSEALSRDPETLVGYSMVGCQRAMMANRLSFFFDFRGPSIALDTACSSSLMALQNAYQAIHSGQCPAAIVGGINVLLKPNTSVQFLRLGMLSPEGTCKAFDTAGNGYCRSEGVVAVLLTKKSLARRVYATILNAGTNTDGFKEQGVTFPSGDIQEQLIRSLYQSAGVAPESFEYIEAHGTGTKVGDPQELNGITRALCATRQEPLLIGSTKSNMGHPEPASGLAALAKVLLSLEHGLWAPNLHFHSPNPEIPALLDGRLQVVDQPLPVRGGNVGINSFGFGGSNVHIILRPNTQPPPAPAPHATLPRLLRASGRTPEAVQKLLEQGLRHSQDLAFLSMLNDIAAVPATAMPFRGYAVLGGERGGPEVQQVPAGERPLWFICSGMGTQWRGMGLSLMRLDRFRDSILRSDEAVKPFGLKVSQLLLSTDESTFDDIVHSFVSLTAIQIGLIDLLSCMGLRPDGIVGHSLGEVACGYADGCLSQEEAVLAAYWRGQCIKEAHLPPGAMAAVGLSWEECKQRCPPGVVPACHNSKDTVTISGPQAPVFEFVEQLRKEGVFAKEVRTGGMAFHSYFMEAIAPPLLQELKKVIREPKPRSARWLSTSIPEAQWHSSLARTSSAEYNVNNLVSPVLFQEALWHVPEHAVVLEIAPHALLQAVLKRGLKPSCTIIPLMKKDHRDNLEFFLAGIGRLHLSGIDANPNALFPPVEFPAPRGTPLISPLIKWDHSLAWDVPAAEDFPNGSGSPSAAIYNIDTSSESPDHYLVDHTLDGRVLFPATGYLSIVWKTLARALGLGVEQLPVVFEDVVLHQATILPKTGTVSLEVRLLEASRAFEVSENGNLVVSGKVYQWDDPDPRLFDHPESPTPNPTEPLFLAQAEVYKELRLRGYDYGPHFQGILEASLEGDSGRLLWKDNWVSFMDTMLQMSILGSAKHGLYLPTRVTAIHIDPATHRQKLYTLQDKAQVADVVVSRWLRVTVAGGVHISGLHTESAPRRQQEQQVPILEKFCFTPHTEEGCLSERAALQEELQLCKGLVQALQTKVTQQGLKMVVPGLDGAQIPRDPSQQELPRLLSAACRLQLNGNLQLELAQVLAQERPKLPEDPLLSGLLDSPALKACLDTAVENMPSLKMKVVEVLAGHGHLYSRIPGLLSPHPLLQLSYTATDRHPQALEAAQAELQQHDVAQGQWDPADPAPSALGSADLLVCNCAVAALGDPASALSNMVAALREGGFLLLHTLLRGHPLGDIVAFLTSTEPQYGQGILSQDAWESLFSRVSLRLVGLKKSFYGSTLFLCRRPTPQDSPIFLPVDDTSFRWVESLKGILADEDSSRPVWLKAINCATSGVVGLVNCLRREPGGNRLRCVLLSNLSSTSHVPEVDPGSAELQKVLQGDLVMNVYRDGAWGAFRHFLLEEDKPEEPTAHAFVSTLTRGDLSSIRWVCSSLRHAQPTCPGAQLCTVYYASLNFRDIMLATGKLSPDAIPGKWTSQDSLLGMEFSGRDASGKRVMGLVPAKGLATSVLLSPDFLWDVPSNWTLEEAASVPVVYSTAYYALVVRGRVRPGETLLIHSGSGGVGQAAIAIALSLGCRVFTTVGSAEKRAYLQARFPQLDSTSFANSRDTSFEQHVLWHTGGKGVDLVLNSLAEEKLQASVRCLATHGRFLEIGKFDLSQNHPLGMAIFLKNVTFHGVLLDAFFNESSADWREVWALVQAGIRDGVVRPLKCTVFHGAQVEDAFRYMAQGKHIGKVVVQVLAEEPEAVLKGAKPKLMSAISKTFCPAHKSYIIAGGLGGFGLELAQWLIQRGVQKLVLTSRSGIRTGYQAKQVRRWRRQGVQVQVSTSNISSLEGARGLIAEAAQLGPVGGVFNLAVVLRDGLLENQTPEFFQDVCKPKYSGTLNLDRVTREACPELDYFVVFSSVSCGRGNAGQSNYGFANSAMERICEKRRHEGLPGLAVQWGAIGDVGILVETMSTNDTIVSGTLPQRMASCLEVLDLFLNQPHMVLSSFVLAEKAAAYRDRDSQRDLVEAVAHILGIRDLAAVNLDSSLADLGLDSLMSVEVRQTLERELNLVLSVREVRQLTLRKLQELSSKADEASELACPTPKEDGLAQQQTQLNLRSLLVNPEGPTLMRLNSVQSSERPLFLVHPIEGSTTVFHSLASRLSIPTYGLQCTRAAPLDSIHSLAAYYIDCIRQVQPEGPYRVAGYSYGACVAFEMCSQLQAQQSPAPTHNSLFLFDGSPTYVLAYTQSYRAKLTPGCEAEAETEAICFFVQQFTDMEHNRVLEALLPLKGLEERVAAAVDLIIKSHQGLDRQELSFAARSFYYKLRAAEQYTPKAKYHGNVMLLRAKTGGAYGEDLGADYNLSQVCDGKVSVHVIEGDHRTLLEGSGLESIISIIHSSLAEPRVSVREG

## C/C=C/C/C=C/CCC(=O)[C@H]1O[C@H]1C(N)=O [Cerulenin]
A549
  Cell proliferation: decreased proliferation
H1299
  Cell proliferation: decreased proliferation

## C=C1C(=O)OC(CCCCCCCC)C1C(=O)O (centres unmarked) [C75]
FASN
  FASN inhibitory potency: weak, irreversible inhibitor

## Cc1ccnc(NS(=O)(=O)c2ccc(NC(=O)Nc3ccc(S(=O)(=O)Nc4nccc(C)n4)cc3)cc2)n1 [GSK837149A]
FASN
  FASN inhibitory potency: low, nanomolar

## CC(C)=CCC/C(C)=C/CC/C(C)=C/CSc1ccccc1C(=O)O [FTS, S-trans,trans-farnesylthiosalicylic acid]
[1]; human lung cancer cell line, FTS at 5-20 ng/mL, FIG. 5B
  Gene expression of FASN and SCD upon KRAS inhibition: decreased the gene expression of FASN and SCD in a dose-dependent manner
ERK1/2 phosphorylation
  Decrease of ERK1/2 phosphorylation: 35%
BCL2-induced lymphoma
  Tumor growth inhibition: inhibits tumor growth more effectively than inactivating either oncogene alone
ERK1/2 phospho-isoforms; FNA after 4 days of treatment
  Total ERK1/2 level: did not change
ERK1/2 phospho-isoforms; FNA on day 4 of treatment
  Phospho-ERK isoforms: all phospho-ERK isoforms decreased

## O=C(Nc1ccc2[nH]nc(-c3ccncc3)c2c1)[C@@H]1CCN(CC(=O)N2CCN(c3ccc(-c4ncccn4)cc3)CC2)C1 [SCH772984]
[1]; A549 and H1299 cells, SCH772984 at 125 ng/mL, FIG. 5A
  Relative mRNA expression of FASN and SCD upon ERK inhibition: suppression of FASN and SCD

## COc1cc(OC)c(/C=C/S(=O)(=O)Cc2ccc(OC)c(NCC(=O)O)c2)c(OC)c1 [Rigosertib]
Erk pathway
  Erk pathway activity (ERK isoforms by NIA): decreases Erk pathway

## epigallocatechin-3-gallate [EGCG]
FASN
  FASN inhibitory potency: high micromolar

## CC(C)c1c(C(=O)Nc2ccccc2)c(-c2ccccc2)c(-c2ccc(F)cc2)n1CC[C@@H](O)C[C@@H](O)CC(=O)O [atorvastatin]
Tumor burden; patient A
  Tumor burden: tumor burden decreased
Tumor burden; patient B
  Tumor burden: no change in tumor burden
MEK1 phospho-isoforms; day 1 vs after 8 days of treatment, FIG. 27
  Patients with significant changes in di-phospho-MEK1: four of nine
MEK1 phospho-isoforms; day 1 vs after eight days of treatment, FIG. 26
  Patients with significant changes in tri-phospho-MEK1: four of nine
MEK1 phospho-isoforms; day 1 vs after eight days of treatment, FIG. 28
  Patients with significant changes in Mono-phospho-MEK1: one of nine
